{"source": "paper PMC5396026", "about": "(Chemical Research in Toxicology, 2016)", "data": [{"biological_target": "T1, AR (Homo sapiens, UniProt P10275)", "T1 sequence (P10275 1-920)": "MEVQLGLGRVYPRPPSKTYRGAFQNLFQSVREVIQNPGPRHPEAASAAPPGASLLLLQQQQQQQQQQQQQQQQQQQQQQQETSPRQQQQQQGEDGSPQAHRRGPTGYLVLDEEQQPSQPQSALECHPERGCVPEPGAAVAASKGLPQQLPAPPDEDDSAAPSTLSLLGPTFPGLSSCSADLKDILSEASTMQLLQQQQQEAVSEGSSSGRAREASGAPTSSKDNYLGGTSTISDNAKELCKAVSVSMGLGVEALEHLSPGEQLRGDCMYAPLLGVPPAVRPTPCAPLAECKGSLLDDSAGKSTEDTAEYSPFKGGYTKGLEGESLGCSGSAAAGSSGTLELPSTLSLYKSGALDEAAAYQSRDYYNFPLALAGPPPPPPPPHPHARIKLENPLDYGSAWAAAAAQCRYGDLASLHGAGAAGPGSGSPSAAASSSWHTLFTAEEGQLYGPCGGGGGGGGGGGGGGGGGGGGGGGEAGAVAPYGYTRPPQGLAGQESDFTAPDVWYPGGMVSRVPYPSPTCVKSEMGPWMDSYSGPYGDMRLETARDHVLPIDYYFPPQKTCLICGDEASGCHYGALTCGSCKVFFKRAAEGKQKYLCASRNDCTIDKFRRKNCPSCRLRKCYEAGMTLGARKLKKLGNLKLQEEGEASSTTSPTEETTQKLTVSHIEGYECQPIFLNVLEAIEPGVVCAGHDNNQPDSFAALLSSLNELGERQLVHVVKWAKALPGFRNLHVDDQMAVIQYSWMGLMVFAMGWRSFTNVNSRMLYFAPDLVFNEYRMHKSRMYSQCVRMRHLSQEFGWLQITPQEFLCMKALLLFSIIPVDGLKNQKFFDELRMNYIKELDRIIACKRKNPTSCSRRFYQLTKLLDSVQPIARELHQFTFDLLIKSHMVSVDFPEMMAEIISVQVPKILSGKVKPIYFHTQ", "assay": "not given", "type": "cell-based", "settings": "AC50 at 10 nM vs 0.5 nM R1881, 95% confidence intervals", "values": [{"compound": "C[C@H]1CCCC(=O)CCC/C=C/c2cc(O)cc(O)c2C(=O)O1", "note": "[zearalenone]", "potency shift in antagonist confirmation assay": "active in both screens and exhibited a potency shift in the expected direction"}, {"compound": "CC[C@H](c1ccc(O)cc1)[C@@H](CC)c1ccc(O)cc1", "note": "[meso-hexestrol]", "potency shift in antagonist confirmation assay": "shift in the correct direction but with overlapping confidence intervals"}, {"compound": "CCN=C1C=CC(=C(c2ccc(N(CC)CC)cc2)c2ccc(N(CC)CC)cc2)c2ccccc21.Cl", "note": "[basic blue 7]", "potency shift in antagonist confirmation assay": "flagged for a lack of a potency shift"}, {"compound": "CC/N=c1\\cc2oc3cc(NCC)c(C)cc3c(-c3ccccc3C(=O)OCC)c-2cc1C", "note": "[rhodamine 6G]", "potency shift in antagonist confirmation assay": "flagged for a lack of a potency shift"}]}, {"biological_target": "T2, AR (Rattus norvegicus, UniProt P15207)", "T2 sequence (P15207 1-902)": "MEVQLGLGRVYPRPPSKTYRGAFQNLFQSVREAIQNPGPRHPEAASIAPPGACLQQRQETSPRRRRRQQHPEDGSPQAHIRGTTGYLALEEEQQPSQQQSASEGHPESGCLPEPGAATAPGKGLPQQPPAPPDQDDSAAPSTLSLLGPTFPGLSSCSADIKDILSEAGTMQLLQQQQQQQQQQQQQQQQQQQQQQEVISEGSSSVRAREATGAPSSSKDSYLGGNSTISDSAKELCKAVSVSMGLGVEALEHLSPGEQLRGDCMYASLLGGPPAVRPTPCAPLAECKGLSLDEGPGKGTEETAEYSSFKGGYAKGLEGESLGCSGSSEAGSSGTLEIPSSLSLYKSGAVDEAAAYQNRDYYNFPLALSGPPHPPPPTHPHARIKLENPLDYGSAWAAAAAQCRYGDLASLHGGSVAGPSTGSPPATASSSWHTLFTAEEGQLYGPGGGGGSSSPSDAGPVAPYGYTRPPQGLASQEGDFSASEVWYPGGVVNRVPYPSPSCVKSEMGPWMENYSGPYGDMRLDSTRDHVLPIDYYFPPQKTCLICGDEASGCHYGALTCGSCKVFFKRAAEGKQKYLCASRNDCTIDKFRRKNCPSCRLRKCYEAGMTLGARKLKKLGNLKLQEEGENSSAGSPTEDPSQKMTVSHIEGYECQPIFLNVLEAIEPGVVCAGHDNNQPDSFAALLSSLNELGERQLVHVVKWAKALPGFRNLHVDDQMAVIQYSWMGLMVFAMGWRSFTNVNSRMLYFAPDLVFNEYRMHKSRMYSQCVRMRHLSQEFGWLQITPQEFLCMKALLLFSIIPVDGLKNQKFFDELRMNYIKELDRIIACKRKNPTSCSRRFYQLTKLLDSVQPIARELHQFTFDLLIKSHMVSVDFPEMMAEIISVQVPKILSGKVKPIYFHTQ", "assay": "Literature review: AR transactivation assays, agonist mode", "settings": "reference classification from curated literature TA data (mean AC50)", "values": [{"compound": "C[C@]12C=CC3=C4CCC(=O)C=C4CC[C@H]3[C@@H]1CC[C@@H]2O", "note": "[17b-trenbolone]", "agonist potency category": "strong (Strong: mean AC50 ≤ 0.1 μM)"}, {"compound": "CCCCNC(=O)n1c(NC(=O)OC)nc2ccccc21", "note": "[benomyl]", "agonist potency category": "negative"}, {"compound": "C[C@]12CC[C@@H]3c4ccc(O)cc4C[C@@H](CCCCCCCCC[S+]([O-])CCCC(F)(F)C(F)(F)F)[C@H]3[C@@H]1CC[C@@H]2O", "note": "(stereo partly drawn) [ICI 182,780]", "agonist potency category": "negative"}, {"compound": "CC1(C)[C@H](C(=O)O[C@H](C#N)c2cccc(Oc3ccccc3)c2)[C@@H]1C=C(Br)Br", "note": "[deltamethrin]", "agonist potency category": "negative"}, {"compound": "CC(C)=CC1C(C(=O)OCN2C(=O)C3=C(CCCC3)C2=O)C1(C)C", "note": "(stereo not drawn) [tetramethrin]", "agonist potency category": "negative"}, {"compound": "CC1(C)C(C=C(Cl)Cl)C1C(=O)OCc1cccc(Oc2ccccc2)c1", "note": "(stereo not drawn) [permethrin]", "agonist potency category": "negative"}, {"compound": "COC(=O)Nc1nc2ccccc2[nH]1", "note": "[carbendazim]", "agonist potency category": "negative"}, {"compound": "C[C@]1(O)CC[C@H]2[C@@H]3CCC4=CC(=O)CCC4=C3C=C[C@@]21C", "note": "[methyltrienolone (R1881), methyltrienolone]", "agonist potency category": "strong (Strong: mean AC50 ≤ 0.1 μM)"}, {"compound": "Oc1ccc(/C=C/c2cc(O)cc(O)c2)cc1", "note": "[resveratrol]", "agonist potency category": "negative"}]}, {"system": "AR pathway", "assay": "not given", "settings": "not given", "values": [{"compound": "C[C@]12CC[C@@H]3c4ccc(O)cc4CC[C@H]3[C@@H]1CC[C@H]2O", "note": "[17a-estradiol]", "AR pathway model AUC, Agonist (R1)": 0.67}, {"compound": "CC/C(=C(\\c1ccccc1)c1ccc(OCCN(C)C)cc1)c1ccccc1", "note": "[tamoxifen]", "AR pathway model AUC, Agonist (R1)": 0.0335}]}, {"system": "AR pathway", "assay": "not given", "settings": "agonist reference chemicals", "values": [{"compound": "C[C@]12CC[C@@H]3c4ccc(O)cc4CC[C@H]3[C@@H]1CC[C@H]2O", "note": "[17a-estradiol]", "AR pathway model agonist prediction against reference classification": "false positive"}]}, {"system": "AR pathway", "assay": "not given", "settings": "antagonist reference chemicals", "values": [{"compound": "C[C@H]1CCCC(=O)CCC/C=C/c2cc(O)cc(O)c2C(=O)O1", "note": "[zearalenone]", "AR pathway model antagonist prediction against reference classification": "false negative"}]}, {"system": "AR pathway", "assay": "not given", "settings": "maximum of agonist or antagonist AUC", "values": [{"compound": "CCOP(=S)(OCC)Oc1cc(C)nc(C(C)C)n1", "note": "[diazinon]", "AR pathway model call": "negative (negative if the maximum was <0.001)"}, {"compound": "COP(=S)(OC)SCN1C(=O)c2ccccc2C1=O", "note": "[phosmet]", "AR pathway model call": "negative (negative if the maximum was <0.001)"}, {"compound": "Oc1ccccc1-c1ccccc1", "note": "[2-phenylphenol]", "AR pathway model call": "negative (negative if the maximum was <0.001)"}, {"compound": "CCc1cccc(C)c1N(C(=O)CCl)C(C)COC", "note": "(stereo not drawn) [metolachlor]", "AR pathway model call": "negative (negative if the maximum was <0.001)"}, {"compound": "N#Cc1c(Cl)cccc1Cl", "note": "[dichlobenil]", "AR pathway model call": "negative (negative if the maximum was <0.001)"}, {"compound": "CNC(=O)Oc1cccc2ccccc12", "note": "[carbaryl]", "AR pathway model call": "negative (negative if the maximum was <0.001)"}, {"compound": "CCCCC(C#N)(Cn1cncn1)c1ccc(Cl)cc1", "note": "(stereo not drawn) [myclobutanil]", "AR pathway model call": "negative (negative if the maximum was <0.001)"}]}, {"system": "cytotoxicity", "assay": "not given", "type": "cell-based", "settings": "distance of AR assay logAC50 from median cytotoxicity logAC50; high = >3", "values": [{"compound": "C=CC1(C)OC(=O)N(c2cc(Cl)cc(Cl)c2)C1=O", "note": "(stereo not drawn) [vinclozolin]", "average Z-score": "high"}, {"compound": "O=c1cc(-c2ccc(O)cc2)oc2cc(O)cc(O)c12", "note": "[apigenin]", "average Z-score": "high"}, {"compound": "CC(=O)S[C@@H]1CC2=CC(=O)CC[C@]2(C)[C@H]2CC[C@@]3(C)[C@@H](CC[C@@]34CCC(=O)O4)[C@H]12", "note": "[spironolactone]", "average Z-score": "high"}, {"compound": "CON(C)C(=O)Nc1ccc(Cl)c(Cl)c1", "note": "[linuron]", "average Z-score": "high"}, {"compound": "CC1(C)NC(=O)N(c2ccc([N+](=O)[O-])c(C(F)(F)F)c2)C1=O", "note": "[nilutamide]", "average Z-score": "high"}, {"compound": "CC(C)(O)C(=O)Nc1ccc([N+](=O)[O-])c(C(F)(F)F)c1", "note": "[hydroxyflutamide]", "average Z-score": "high"}]}]}
